{"source": "patent US20110319431A1", "about": "“Bis Aromatic Compounds for Use as LTC4 Synthase Inhibitors” (BIOLIPOX AB, priority 2009, published 2011)", "target": "T1, Recombinant human LTC4 synthase (Homo sapiens, UniProt Q16873)", "T1 construct": "made in house; host or cells: Pichia pastoris", "T1 sequence (Q16873 1-150)": "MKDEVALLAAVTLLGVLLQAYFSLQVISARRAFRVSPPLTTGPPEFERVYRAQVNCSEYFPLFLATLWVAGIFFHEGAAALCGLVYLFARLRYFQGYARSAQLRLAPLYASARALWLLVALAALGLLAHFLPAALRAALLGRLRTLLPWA", "experiment": "In vitro LTC4 synthase assay (LTA4 to LTC4, HTRF detection)", "assay_type": "biochemical", "conditions": "for inhibition at 10 µM: 5 min, total concentration of title compounds in the assay 10 μM", "procedure": "In the assay, LTC4 synthase catalyses the reaction where the substrate LTA4 is converted to LTC4. Recombinant human LTC4 synthase is expressed in Piccia pastoralis and the purified enzyme is dissolved in 25 mM tris-buffer pH 7.8 supplemented with 0.1 mM glutathione (GSH) and stored at −80° C. The assay is performed in phosphate buffered saline (PBS) pH 7.4 and 5 mM GSH in 384-well plates.\nThe following is added chronologically to each well:\n1. 48 μL LTC4 synthase in PBS with 5 mM GSH. The total protein concentration in this solution is 0.5 μg/mL. 2. 1 μL inhibitor in DMSO (final concentration 10 μM). 3. Incubation of the plate at room temperature for 10 min. 4. 1 μL LTA4 (final concentration 2.5 μM). 5. Incubation of the plate at room temperature for 5 min. 6. 10 μL of the incubation mixture is analysed using homogenous time resolved fluorescent (HTRF) detection.", "key": {"[1]": {"conditions": "title compounds of the Examples"}, "[2]": {"conditions": "Table 4, title compounds of Example 4"}}, "data": [{"smiles": "COc1ccc(Sc2cc(C(=O)O)cc(C(=O)c3ccc(N(C)c4ccc(Cl)cc4)cc3)c2)cc1OC", "note": "[2:27, 3-(4-((4-Chlorophenyl)(methyl)amino)benzoyl)-5-(3,4-dimethoxyphenylsulfanyl)benzoic acid]", "values": [{"measurement": "IC50", "setting": "[1]", "value": 328, "unit": "nM"}]}, {"smiles": "CN(c1ccc(Cl)cc1)c1ccc(C(=O)c2cc(Sc3cccc(OC(F)(F)F)c3)cc(C(=O)O)c2)cc1", "note": "[2:28, 3-(4-((4-Chlorophenyl)(methyl)amino)benzoyl)-5-(3-(trifluoromethoxy)phenylsulfanyl)benzoic acid]", "values": [{"measurement": "IC50", "setting": "[1]", "value": 148, "unit": "nM"}]}, {"smiles": "CN(c1ccc(Cl)cc1)c1ccc(C(=O)c2cc(Sc3ccc(F)c(F)c3)cc(C(=O)O)c2)cc1", "note": "[2:29, 3-(4-((4-Chlorophenyl)(methyl)amino)benzoyl)-5-(3,4-difluorophenylsulfanyl)benzoic acid]", "values": [{"measurement": "IC50", "setting": "[1]", "value": 88, "unit": "nM"}]}, {"smiles": "CN(c1ccc(Cl)cc1)c1ccc(C(=O)c2cc(Sc3ccccc3)cc(C(=O)O)c2)cc1", "note": "[2:30, 3-(4-((4-Chlorophenyl)(methyl)amino)benzoyl)-5-(phenysulfanyl)benzoic acid]", "values": [{"measurement": "IC50", "setting": "[1]", "value": 175, "unit": "nM"}]}, {"smiles": "CCCCCCSc1cc(C(=O)O)cc(C(=O)c2ccc(N(C)c3ccc(Cl)cc3)cn2)c1", "note": "[4:3, 3-{5-[(4-Chlorophenyl)(methyl)amino]picolinoyl}-5-(1-hexyl)-sulfanylbenzoic acid]", "values": [{"measurement": "IC50", "setting": "[2]", "value": 215, "unit": "nM"}]}, {"smiles": "CN(c1ccc(Cl)cc1)c1ccc(C(=O)c2cc(Sc3ccccc3)cc(C(=O)O)c2)nc1", "note": "[4:4, 3-{5-[(4-Chlorophenyl)(methyl)amino]picolinoyl}-5-phenylsulfanylbenzoic acid]", "values": [{"measurement": "IC50", "setting": "[2]", "value": 135, "unit": "nM"}]}, {"smiles": "COc1cccc(Sc2cc(C(=O)O)cc(C(=O)c3ccc(N(C)c4ccc(Cl)cc4)cc3)c2)c1", "note": "[4:5, 3-{4-[(4-Chlorophenyl)(methyl)amino]benzoyl}-5-(3-methoxyphenyl-sulfanyl)benzoic acid]", "values": [{"measurement": "IC50", "setting": "[2]", "value": 143, "unit": "nM"}]}, {"smiles": "CN(c1ccc(Cl)cc1)c1ccc(C(=O)c2cc(Sc3cccc(Cl)c3)cc(C(=O)O)c2)cc1", "note": "[4:6, 3-{4-[(4-Chlorophenyl)(methyl)amino]benzoyl}-5-(3-chlorophenyl-sulfanyl)benzoic acid]", "values": [{"measurement": "IC50", "setting": "[2]", "value": 165, "unit": "nM"}]}, {"smiles": "COc1ccc(Sc2cc(C(=O)O)cc(C(=O)c3ccc(N(C)c4ccc(Cl)cc4)cc3)c2)cc1OC", "note": "[4:7, 3-{4-[(4-Chlorophenyl)(methyl)amino]benzoyl}-5-(3,4-dimethoxyphenyl-sulfanyl)benzoic acid]", "values": [{"measurement": "IC50", "setting": "[2]", "value": 328, "unit": "nM"}]}, {"smiles": "CN(c1ccc(Cl)cc1)c1ccc(C(=O)c2cc(Sc3cccc(OC(F)(F)F)c3)cc(C(=O)O)c2)cc1", "note": "[4:8, 3-{4-[(4-Chlorophenyl)(methyl)amino]benzoyl}-5-(3-(trifluoromethoxy)-phenylsulfanyl)benzoic acid]", "values": [{"measurement": "IC50", "setting": "[2]", "value": 148, "unit": "nM"}]}, {"smiles": "CN(c1ccc(Cl)cc1)c1ccc(C(=O)c2cc(Sc3ccc(F)c(F)c3)cc(C(=O)O)c2)cc1", "note": "[4:9, 3-{4-[(4-Chlorophenyl)(methyl)amino]benzoyl}-5-(3,4-difluorophenyl-sulfanyl)benzoic acid]", "values": [{"measurement": "IC50", "setting": "[2]", "value": 88, "unit": "nM"}]}, {"smiles": "CN(c1ccc(Cl)cc1)c1ccc(C(=O)c2cc(Sc3ccccc3)cc(C(=O)O)c2)cc1", "note": "[4:10, 3-{4-[(4-Chlorophenyl)(methyl)amino]benzoyl}-5-(phenysulfanyl)benzoic acid]", "values": [{"measurement": "IC50", "setting": "[2]", "value": 175, "unit": "nM"}]}, {"smiles": "CCCCCC[S+]([O-])c1ccc(C(=O)c2ccc(N(C)c3ccc(Cl)cc3)cc2)cc1C(=O)O", "note": "(centres unmarked) [Example 1:1, 5-{4-[(4-Chlorophenyl)(methyl)amino]benzoyl}-2-(1-hexylsulfinyl)benzoic acid]", "values": [{"measurement": "inhibition at 10 µM", "value": 100, "unit": "%"}, {"measurement": "IC50", "setting": "[1]", "value": 56, "unit": "nM"}]}, {"smiles": "CN(c1ccc(Cl)cc1)c1ccc(C(=O)c2ccc([S+]([O-])c3ccc(Cl)cc3)c(C(=O)O)c2)cc1", "note": "(centres unmarked) [Example 1:2, 5-{4-[(4-Chlorophenyl)(methyl)amino]benzoyl}-2-(4-chlorophenylsulfinyl)benzoic acid]", "values": [{"measurement": "inhibition at 10 µM", "value": 100, "unit": "%"}, {"measurement": "IC50", "setting": "[1]", "value": 66, "unit": "nM"}]}, {"smiles": "O=C(c1ccc(N(CC2CC2)c2ccc(Cl)cc2)cc1)c1ccc([S+]([O-])c2ccccc2)c(C(=O)O)c1", "note": "(centres unmarked) [Example 1:11, 5-{4-[(4-Chlorophenyl)(cyclopropylmethyl)amino]benzoyl}-2-phenylsulfinyl-benzoic acid]", "values": [{"measurement": "IC50", "setting": "[1]", "value": 26, "unit": "nM"}]}, {"smiles": "CCCCCC[S+]([O-])c1ccc(C(=O)c2ccc(N(CC3CC3)c3ccc(Cl)cc3)cc2)cc1C(=O)O", "note": "(centres unmarked) [Example 1:12, 5-{4-[(4-Chlorophenyl)cyclopropylmethylamino]benzoyl}-2-(1-hexylsulfinyl)-benzoic acid]", "values": [{"measurement": "IC50", "setting": "[1]", "value": 29, "unit": "nM"}]}, {"smiles": "CN(c1ccc(Cl)cc1)c1ccc(C(=O)c2ccc([S+]([O-])c3ccc(F)c(F)c3)c(C(=O)O)c2)nc1", "note": "(centres unmarked) [Example 1:13, 5-{5-[(4-Chlorophenyl)methylamino]pyridine-2-carbonyl}-2-(3,4-difluorophenyl-sulfinyl)benzoic acid]", "values": [{"measurement": "inhibition at 10 µM", "value": 99, "unit": "%"}, {"measurement": "IC50", "setting": "[1]", "value": 87, "unit": "nM"}]}, {"smiles": "O=C(c1ccc([S+]([O-])c2ccc(C(F)(F)F)cc2)c(C(=O)O)c1)c1ccc(N(CC2CC2)c2ccc(Cl)cc2)cn1", "note": "(centres unmarked) [Example 1:14, 5-{5-[(4-Chlorophenyl)cyclopropylmethylamino]pyridine-2-carbonyl}-2-(4-tri-fluoromethylphenylsulfinyl)benzoic acid]", "values": [{"measurement": "IC50", "setting": "[1]", "value": 48, "unit": "nM"}]}, {"smiles": "CN(c1ccc(Cl)cc1)c1ccc(C(=O)c2cc(C(=O)O)cc([S+]([O-])c3ccc(F)c(F)c3)c2)cc1", "note": "(centres unmarked) [Example 1:19, 3-{4-[(4-Chlorophenyl)(methyl)amino]benzoyl}-5-(3,4-difluorophenylsulfinyl)-benzoic acid]", "values": [{"measurement": "IC50", "setting": "[1]", "value": 212, "unit": "nM"}]}, {"smiles": "CCCCCC[S+]([O-])c1cc(C(=O)O)cc(C(=O)c2ccc(N(C)c3ccc(Cl)cc3)cn2)c1", "note": "(centres unmarked) [Example 1:20, 3-{5-[(4-Chlorophenyl)methylamino]pyridine-2-carbonyl}-5-(1-hexylsulfinyl)-benzoic acid]", "values": [{"measurement": "IC50", "setting": "[1]", "value": 404, "unit": "nM"}]}, {"smiles": "CCCCCC[S+]([O-])c1ccc(C(=O)c2ncc(N(C)c3ccc(Cl)cc3)cn2)cc1C(=O)O", "note": "(centres unmarked) [Example 1:21, 5-(5-((4-Chlorophenyl)(methyl)amino)pyrimidine-2-carbonyl)-2-(1-hexylsulfinyl)-benzoic acid]", "values": [{"measurement": "inhibition at 10 µM", "value": 99, "unit": "%"}, {"measurement": "IC50", "setting": "[1]", "value": 54, "unit": "nM"}]}, {"smiles": "CCCCCC[S+]([O-])c1ccc(C(=O)c2ccc(N(C)c3ccc(Cl)cc3)cn2)cc1C(=O)O", "note": "(centres unmarked) [Example 1:22, 5-{5-[(4-Chlorophenyl)methylamino]pyridine-2-carbonyl}-2-(1-hexylsulfinyl)-benzoic acid]", "values": [{"measurement": "IC50", "setting": "[1]", "value": 41, "unit": "nM"}]}, {"smiles": "CCCCCCSc1ccc(C(=O)c2ccc(N(C)c3ccc(Cl)cc3)cc2)cc1C(=O)O", "note": "[Example 2:1, 5-{4-[(4-Chlorophenyl)(methyl)amino]benzoyl}-2-(1-hexylsulfanyl)benzoic acid]", "values": [{"measurement": "inhibition at 10 µM", "value": 99, "unit": "%"}, {"measurement": "IC50", "setting": "[1]", "value": 172, "unit": "nM"}]}, {"smiles": "CN(c1ccc(Cl)cc1)c1ccc(C(=O)c2ccc(Sc3cccc(Cl)c3)c(C(=O)O)c2)cc1", "note": "[Example 2:2, 5-{4-[(4-Chlorophenyl)(methyl)amino]benzoyl}-2-(3-chlorophenylsulfanyl)-benzoic acid]", "values": [{"measurement": "inhibition at 10 µM", "value": 98, "unit": "%"}, {"measurement": "IC50", "setting": "[1]", "value": 73, "unit": "nM"}]}, {"smiles": "O=C(c1ccc(Sc2ccc(F)c(F)c2)c(C(=O)O)c1)c1ccc(OCc2cccc(Cl)c2)cn1", "note": "[Example 2:21, 5-[5-(3-Chlorobenzyloxy)pyridine-2-carbonyl]-2-(3,4-difluorophenyl-sulfanyl)benzoic acid]", "values": [{"measurement": "IC50", "setting": "[1]", "value": 119, "unit": "nM"}]}, {"smiles": "COc1ccc(Sc2ccc(C(=O)c3ccc(OCc4cccc(Cl)c4)cn3)cc2C(=O)O)cc1", "note": "[Example 2:22, 5-[5-(3-Chlorobenzyloxy)pyridine-2-carbonyl]-2-(4-methoxyphenyl-sulfanyl)benzoic acid]", "values": [{"measurement": "IC50", "setting": "[1]", "value": 252, "unit": "nM"}]}, {"smiles": "CCCCCCS(=O)(=O)c1ccc(C(=O)c2ccc(N(C)c3ccc(Cl)cc3)cc2)cc1C(=O)O", "note": "[Example 3:1, 5-{4-[(4-Chlorophenyl)(methyl)amino]benzoyl}-2-(1-hexylsulfonyl)benzoic acid]", "values": [{"measurement": "inhibition at 10 µM", "value": 97, "unit": "%"}, {"measurement": "IC50", "setting": "[1]", "value": 398, "unit": "nM"}]}, {"smiles": "CN(c1ccc(Cl)cc1)c1ccc(C(=O)c2ccc(S(=O)(=O)c3ccc(Cl)cc3)c(C(=O)O)c2)cc1", "note": "[Example 3:2, 5-{4-[(4-Chlorophenyl)(methyl)amino]benzoyl}-2-(4-chlorophenylsulfonyl)benzoic acid]", "values": [{"measurement": "inhibition at 10 µM", "value": 98, "unit": "%"}, {"measurement": "IC50", "setting": "[1]", "value": 635, "unit": "nM"}]}, {"smiles": "CN(c1ccc(Cl)cc1)c1ccc(C(=O)c2cc(C(=O)O)cc([S+]([O-])c3ccc(F)c(F)c3)c2)cc1", "note": "(centres unmarked) [Example 4:1, 3-{4-[(4-Chlorophenyl)(methyl)amino]benzoyl}-5-(3,4-difluorophenylsulfinyl)-benzoic acid]", "values": [{"measurement": "IC50", "setting": "value printed in the text of Example 4:1", "value": 212, "unit": "nM"}]}, {"smiles": "CCCCCC[S+]([O-])c1cc(C(=O)O)cc(C(=O)c2ccc(N(C)c3ccc(Cl)cc3)cn2)c1", "note": "(centres unmarked) [Example 4:2, 3-{5-[(4-Chlorophenyl)(methyl)amino]picolinoyl}-5-(1-hexylsulfinyl)-benzoic acid]", "values": [{"measurement": "IC50", "setting": "[2]", "value": 404, "unit": "nM"}]}]}
